For one data set, the system named is NOD scid/scid mice. As to the kind of experiment: Adoptive transfer of splenocytes from vaccinated NOD mice into NOD scid/scid mice. The class given is in vivo. As to conditions: for effect on incidence of diabetes in NOD scid/scid adoptive transfer model (in words): antigen in IFA; for scid/scid recipient mice that became diabetic: antigen in IFA sc. to NOD donors at 3, 5 and 7 weeks, splenocytes cotransferred with untreated NOD splenocytes, by the 75th day after adoptive transfer, 16 mice/group.

In data set [1] the test system is NOD mice. As to the kind of experiment: Histological insulitis grading of pancreases of vaccinated NOD mice. Format: in vivo. To be noted: antigen in IFA; for mean insulitis score: 0-4 scale, pancreases at the time of adoptive transfer (9 weeks of age).
Experimental: Histological studies were performed on the pancreases of the vaccinated mice at the time of adoptive transfer.
For the next data set, the system named is mice. To be noted: mouse, in vivo.
Data set [2] deals with NOD mice. To be noted: cited from earlier work.
The subject of a further data set is human. As to conditions: pilot human trial; Keller et al. 1993; cited from earlier work.

Experimental for NOD scid/scid mice: To test the efficacy of autoantigens in IFA, NOD mice were vaccinated with human recombinant GAD65 (300 μg/mice) in IFA (total volume 0.1 ml), human insulin B-chain (20.1 μg/mice) in IFA (total volume 0.1 ml) and sham protein (Lysozyme, 200 μg/mice) in IFA (total volume 0.1 ml) sc. in the inguinal areas at 3, 5 and 7 weeks of age. At 9 weeks of age the treated mice were sacrificed and their splenocytes (1.0×10^7 cells) were cotransfered with splenocytes from 9 weeks old untreated NOD mice (1.0×10^7 cells) into 9-11 weeks old NOD scid/scid mice (16 mice/group; total 2.0×10^7 cells/mice). Control group received splenocytes (2.0×10^7 cells/mice) from untreated NOD mice.

Turning to “GAD65: Human recombinant GAD65, 585 amino acid β-cell autoantigen (SEQ ID NO:2), given in IFA”, in the data set on NOD scid/scid mice, the “effect on incidence of diabetes in NOD scid/scid adoptive transfer model (in words)” value was “significantly reduces the incidence of diabetes” and the “scid/scid recipient mice that became diabetic” value is recorded as 4/16. Further, in the data set on NOD mice [1], the mean insulitis score is 1.31 and the “effect on insulitis in NOD mice (in words)” value is given as “reduced insulitis”. In addition, the “adverse effects, general and local” value in the data set with mice was “well tolerated without any detectable side effects”. The Th1/Th2 balance entry with NOD mice [2] (nasal administration, Tian et al. 1996) was “change in Th1/Th2 balance in favor of Th2 ‘protective’ cells response”.
On to “Insulin: β-cell specific major protein, moderately immunogenic when used alone”, for which the “development of diabetes mellitus” value with human is “delaying the development of diabetes mellitus”.
In the case of Lysozyme [reference compound], in the data set on NOD scid/scid mice, the “effect on incidence of diabetes in NOD scid/scid adoptive transfer model (in words)” value was “not effective” and the “scid/scid recipient mice that became diabetic” value was “all”. This substance also yielded a mean insulitis score with NOD mice [1] of 2.64.
Consider “human recombinant insulin B-chain: Literature recombinant human insulin B-chain given in IFA (Ramiya et al.) [reference compound]”, for which the “cytokine pattern in NOD mice islets” value in the data set on NOD mice [2] (in IFA, Ramiya et al. 1996) is given as “Th2 cytokine pattern”.

These data come from patent US20060183670A1, “Autoantigen composition” (priority 2001, published 2006).
